These results are taken from BindingDB's records for patent US11938127 (Wayne State University, 2024).

The series addresses T1, Cytochrome P450 1A2 (Homo sapiens, UniProt P05177).
T1 sequence (P05177 whole entry): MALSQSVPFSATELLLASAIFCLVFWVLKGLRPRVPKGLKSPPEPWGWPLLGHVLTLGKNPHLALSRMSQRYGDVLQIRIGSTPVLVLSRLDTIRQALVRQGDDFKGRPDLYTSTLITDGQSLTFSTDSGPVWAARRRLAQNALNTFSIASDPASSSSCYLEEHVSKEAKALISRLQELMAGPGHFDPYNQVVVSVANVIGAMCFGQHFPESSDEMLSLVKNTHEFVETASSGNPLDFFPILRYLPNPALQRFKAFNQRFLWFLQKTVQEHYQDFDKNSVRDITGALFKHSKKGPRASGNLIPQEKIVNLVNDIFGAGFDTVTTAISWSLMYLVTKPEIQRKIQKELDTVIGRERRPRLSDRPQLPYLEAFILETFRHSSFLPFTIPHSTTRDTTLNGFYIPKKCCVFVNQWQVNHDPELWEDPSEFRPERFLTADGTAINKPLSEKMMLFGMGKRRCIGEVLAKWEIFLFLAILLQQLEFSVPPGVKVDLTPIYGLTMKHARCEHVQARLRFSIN
Nature of the series: CYP1A2 Inhibition Assay. Here is the method:
The quenched samples were incubated at 4° C. for 10 min and centrifuged at 4° C. for 10 min.

The compound `CC(C)(C)CN1c2cccc(O)c2C(=O)CC1c1cccc(O)c1` (stereo unspecified) [US11938127, Compound KCI838] came in with an IC50 of 2.92 µM.

As usually defined, the IC50 is the concentration needed to halve the response being measured. A low value points to inhibition by little substance.
